Experimental data reported in patent US20160067246A1, “USE OF PHOSPHODIESTERASE 5A INHIBITORS FOR THE TREATMENT OF MUSCULAR DYSTROPHY” (CEDARS-SINAI MEDICAL CENTER, priority 2013, published 2016).
“And” between values parts separate entries of the source, which are not always exact repeats. Equal values may be shown once.

What was measured:
Type in all cases: in vivo, human
[1] = system: boys with Duchenne muscular dystrophy (DMD); assay: Exercise-induced hyperemia: brachial artery blood flow by Doppler ultrasound and hemodynamics, rest and post handgrip; design: key to BA velocity: mean blood velocity in cm/s; Heart rate: unit not given here
Method: Subjects were studied in the supine position. Heart rate was measured continuously by electrocardiography, and blood pressure measured by automated oscillometric sphygomanometry using a child's cuff ([…] Monitor 300 Series). Brachial artery mean blood velocity (MBV) was measured from the exercising arm using pulsed-Doppler ultrasonography (Siemens iE33). Data were acquired continuously with a 9-MHz probe with a 60° angle of insonation, placed on the skin surface distal to the axilla. The ultrasound gate was optimized to ensure complete insonation of the entire vessel cross-section with constant intensity. The Doppler audio signal was converted to a real-time flow velocity signal using a validated Doppler audio converter,^8B and recorded using a PowerLab data acquisition system (ADInstruments, CO). Brachial artery diameter was measured by B-mode imaging in triplicate at rest. […] Brachial artery blood flow was calculated as MBV (cm/s)·πr^2·60, where r is radius of the brachial artery. […] exercise was performed with a dynamometer ([…] Dynamometer modified by Stoelting). To determine maximal voluntary contraction (MVC), each subject was asked to grip the dynamometer as hard as possible. […] Vascular conductance was calculated as forearm blood flow divided by mean arterial pressure. […] Patients then crossed over 2 weeks later for the opposite drug. […] Patients were queried about potential side-effects throughout the study visit. Baseline characteristics of patients and controls were compared using Student's t test. Exercise-induced attenuation of reflex vasoconstriction (functional sympatholysis) was assessed by comparing the LBNP-induced AHbO2+MbO2 (% TLS) at rest versus the LBNP-induced decrease in ΔHbO2+MbO2 during handgrip. Group differences in ΔHbO2+MbO2 were assessed using a Student's t test. The drug treatment effect on LBNP-induced Δ·HbO2+MbO2 (% TLS) at rest versus the LBNP-induced decrease in ΔHbO2+MbO2 during handgrip was compared to baseline for each patient using a Student's t test. The group difference in the % Δ in brachial artery blood flow was assessed using a student's t test. The drug treatment effect on the % Δ in brachial artery blood flow was compared using a student's t test. All analyses were performed in SigmaPlot. Data are expressed as mean±SEM, unless otherwise specified.

[2] = Tadalafil blood levels by HPLC/tandem MS in BMD patients
Method: The order of tadalafil/placebo was random. The research pharmacist placed tadalafil tablets or lactose powder (placebo) in opaque capsules to blind patients and investigators, both for the test dose and study dose of drug or placebo. Patients were queried about potential tadalafil-specific side-effects both for safety monitoring and to assess whether blinding was maintained. tadalafil blood levels were measured using high performance liquid chromatography/tandem mass spectrometry (NMS Labs Willow Grove, Pa.).

[3] = system: boys with Duchenne muscular dystrophy (DMD); assay: Safety data / side-effects of PDE5 inhibitors in boys with DMD
Method: Subjects were studied in the supine position. Heart rate was measured continuously by electrocardiography, and blood pressure measured by automated oscillometric sphygomanometry using a child's cuff (Welch Allyn Vital Signs Monitor 300 Series).
Patients received 0.5 mg/kg of oral sildenafil or tadalafil on day 1, followed by 1.0 mg/kg of sildenafil or tadalafil on day 2. Patients then crossed over 2 weeks later for the opposite drug. Experiments were performed 1 hour (sildenafil) or 3 hours (tadalafil) after oral treatment to match the experiment with the peak blood level. Patients were queried about potential side-effects throughout the study visit.

Compound: CN1CC(=O)N2[C@H](c3ccc4c(c3)OCO4)c3[nH]c4ccccc4c3C[C@@H]2C1=O [tadalafil]
- BA VC (vascular conductance) ([1]; 0.5 mg/kg, Post-exercise): 2.6 ± 0.4 ml/min/mmHg
- BA blood flow ([1]; 0.5 mg/kg, Post-exercise): 184 ± 24 mL/min
- BA velocity ([1]; 0.5 mg/kg, Post-exercise): 38 ± 5
- Heart rate ([1]; 0.5 mg/kg, Post-exercise): 94 ± 3
- MAP ([1]; 0.5 mg/kg, Post-exercise): 72 ± 2 mmHg
- BA VC (vascular conductance) ([1]; 0.5 mg/kg, Rest): 1.7 ± 0.3 ml/min/mmHg
- BA blood flow ([1]; 0.5 mg/kg, Rest): 118 ± 15 mL/min
- BA velocity ([1]; 0.5 mg/kg, Rest): 26 ± 4
- Heart rate ([1]; 0.5 mg/kg, Rest): 91 ± 3
- MAP ([1]; 0.5 mg/kg, Rest): 74 ± 3 mmHg
- BA VC (vascular conductance) ([1]; 1.0 mg/kg, Post-exercise): 2.5 ± 0.3 ml/min/mmHg
- BA blood flow ([1]; 1.0 mg/kg, Post-exercise): 170 ± 17 mL/min
- BA velocity ([1]; 1.0 mg/kg, Post-exercise): 35 ± 4
- Heart rate ([1]; 1.0 mg/kg, Post-exercise): 92 ± 4
- MAP ([1]; 1.0 mg/kg, Post-exercise): 71 ± 3 mmHg
- BA VC (vascular conductance) ([1]; 1.0 mg/kg, Rest): 1.5 ± 0.3 ml/min/mmHg
- BA blood flow ([1]; 1.0 mg/kg, Rest): 104 ± 14 mL/min
- BA velocity ([1]; 1.0 mg/kg, Rest): 21 ± 3
- Heart rate ([1]; 1.0 mg/kg, Rest): 91 ± 3
- MAP ([1]; 1.0 mg/kg, Rest): 71 ± 2 mmHg
- peak blood concentration of tadalafil in patient P10 (no sympatholysis) ([2]; BMD patient P10, 20 mg oral): 300 ng/mL
- peak tadalafil blood concentration, mean ([2]; BMD patients, 20 mg oral): 260 ± 13 ng/mL
- peak tadalafil blood concentrations, range ([2]; BMD patients, 20 mg oral): 170 to 310 ng/mL
- duration of (penile) erection in an individual patient ([3]; higher dose 1.0 mg/kg): 4 h
- duration of (penile) erection in an individual patient ([3]; low dose 0.5 mg/kg, 0.5 mg/kg): > 4 h and 3 h and 6 h
